Measured values published in ChEMBL document CHEMBL3763034, “Exploring the importance of zinc binding and steric/hydrophobic factors in novel HCV replication inhibitors” (Bioorg Med Chem Lett, 2016).

Key:
[1] = Cytotoxicity against human Huh5-2 cells assessed as reduction in cell metabolic activity after 72 hrs by MTS assay; assay type: ADME, cell-based, Huh-5-2
[2] = Binding affinity to zinc by UV-VIS spectroscopic analysis
[3] = Selectivity index, ratio of CC50 for human Huh5-2 cells to EC50 for hepatitis C virus genotype 1b I389luc-ubi-neo/NS3-3/5.1 replicon infected in human Huh5-2 cells; assay type: toxicity, cell-based, Huh-5-2; conditions: read-out: Ratio CC50/EC50
Hepatitis C virus [4] = assay: Antiviral activity against HCV1b replicon (I389luc-ubi-neo/NS3-3/5.1) infected in Huh5-2 cells assessed as inhibition of viral RNA replication by luciferase reporter gene assay; assay type: functional, organism-based, Hepacivirus hominis; conditions: genotype 1b, Huh-5-2
[5] = Selectivity index, ratio of CC50 for human Huh-9-13 cells to EC50 for hepatitis C virus genotype 1b I389luc-ubi-neo/NS3-3/5.1 replicon infected in human Huh-9-13 cells; assay type: toxicity, cell-based; conditions: read-out: Ratio CC50/EC50
Hepatitis C virus [6] = assay: Antiviral activity against HCV 1b replicon (I389luc-ubi-neo/NS3-3/5.1) infected in Huh-9-13 cells assessed as inhibition of viral RNA replication by RT-PCR method; assay type: functional, organism-based, Hepacivirus hominis; conditions: genotype 1b
[7] = Cytotoxicity against human Huh-9-13 cells assessed as reduction in cell metabolic activity after 72 hrs by MTS assay; assay type: ADME, cell-based

Row | SMILES | Kd [2] [µM] | EC50 (Hepatitis C virus [4]) [µM] | EC50 (Hepatitis C virus [6]) [µM] | CC50 at 72 h [1] [µM] | selectivity ratio [3] | selectivity ratio [5] | CC50 at 72 h [7] [µM]
1 | COC(=O)c1cccc2oc(-c3ccccc3S)nc12 | 0.23 | 2.5 |  | 4.1 | 1.6 |  | 
2 | COC(=O)c1cccc2oc(-c3cc4ccccc4cc3O)nc12 |  | 31 |  | > 50 | > 1.6 |  | 
3 | O=C(O)c1cccc2[nH]c(-c3ccccc3O)nc12 |  | 24 | 23 | > 197 | > 8.2 | > 4.3 | > 100
4 | O=C(NCc1ccccc1)c1cccc2oc(-c3ccccc3O)nc12 |  | 10 |  | > 50 | > 5 |  | 
5 | COC(=O)c1cccc2oc(-c3cccc4cccnc34)nc12 |  | > 50 |  | > 50 |  |  | 
6 | O=C(O)c1cccc2c1nc(-c1ccccc1O)n2Cc1ccccc1 |  | 2.6 | 0.6 | > 145 | > 55 | > 167 | > 100
7 | CNC(=O)c1cccc2[nH]c(-c3ccccc3O)nc12 |  | 16 | 3.1 | > 187 | > 12 | 15 | 47
8 | COC(=O)c1cccc2oc(-c3ccc4ccccc4c3O)nc12 |  | 52 |  | 64 | 1.2 |  | 
9 | CNC(=O)c1cccc2c1nc(-c1ccccc1O)n2Cc1ccccc1 |  | 8.4 | 21 | 101 | 12 | 1.8 | 38
10 | COC(=O)c1cccc2[nH]c(-c3ccccc3O)nc12 | 190 | 106 |  | 132 | 1.3 |  | 
11 | COC(=O)c1cccc2oc(-c3c(O)ccc4ccccc34)nc12 |  | 28 |  | > 50 | > 1.8 |  | 
12 | COC(=O)c1cccc2c1nc(-c1ccccc1O)n2Cc1ccccc1 |  | 7.5 | 0.9 | > 140 | > 19 | 106 | 95

More lines, main results first:

Row | Kd [2] [µM] | EC50 (Hepatitis C virus [4]) [µM] | EC50 (Hepatitis C virus [6]) [µM] | SMILES | CC50 at 72 h [1] [µM] | selectivity ratio [3] | selectivity ratio [5] | CC50 at 72 h [7] [µM]
13 |  | 7.2 |  | CCCCNC(=O)c1cccc2oc(-c3ccccc3O)nc12 | 39 | 5.4 |  | 
14 |  | 47 |  | NC(=O)c1cccc2oc(-c3ccccc3O)nc12 | > 197 | > 4.2 |  | 
15 | 53 | 117 |  | CNC(=O)c1cccc2oc(-c3ccccc3O)nc12 | > 186 | > 1.6 |  | 
16 | 0.5 | 4.9 |  | O=C(O)c1cccc2oc(-c3ccccc3O)nc12 | 25 | 5.1 |  | 
17 | 65 | 40 |  | COC(=O)c1cccc2oc(-c3ccccc3O)nc12 | 71 | 1.8 |  | 
18 |  | 109 |  | CN(C)C(=O)c1cccc2oc(-c3ccccc3O)nc12 | > 177 | > 1.6 |  | 
